According to publication PMC5175178, “Development of an in-vivo active reversible butyrylcholinesterase inhibitor” (Scientific Reports, 2016):
Read-outs that look alike come from different tables or passages of the source.

How the values were obtained:
[1] = biological target: T1, mAChE (Mus musculus, UniProt P21836); assay: In-vitro inhibitory activity against mAChE, method of Ellman; type: biochemical, murine
T1 construct: donated by Florian Nachon (IBS, Grenoble)
T1 sequence (P21836 32-614): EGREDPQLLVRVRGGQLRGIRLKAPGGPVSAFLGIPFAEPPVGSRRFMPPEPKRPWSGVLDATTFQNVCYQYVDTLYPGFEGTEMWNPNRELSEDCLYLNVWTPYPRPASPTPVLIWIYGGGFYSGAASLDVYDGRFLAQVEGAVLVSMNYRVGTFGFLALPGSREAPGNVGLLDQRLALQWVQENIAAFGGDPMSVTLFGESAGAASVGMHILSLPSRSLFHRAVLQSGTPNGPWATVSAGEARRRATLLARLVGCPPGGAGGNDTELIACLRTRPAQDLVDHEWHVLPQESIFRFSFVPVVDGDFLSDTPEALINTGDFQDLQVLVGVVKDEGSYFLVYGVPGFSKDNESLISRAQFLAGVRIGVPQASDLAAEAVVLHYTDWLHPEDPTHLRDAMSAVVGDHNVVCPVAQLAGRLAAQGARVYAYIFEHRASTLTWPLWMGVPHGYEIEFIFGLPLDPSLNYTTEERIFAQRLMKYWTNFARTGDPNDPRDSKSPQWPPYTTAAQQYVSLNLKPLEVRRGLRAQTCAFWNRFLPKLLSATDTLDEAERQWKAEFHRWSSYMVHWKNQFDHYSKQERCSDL
Procedure: (§1) The inhibitory potencies of the compounds against the ChEs were determined using the method of Ellman[32].
(§2) The enzyme solutions were prepared by dilution of the concentrated stocks in phosphate-buffered solution (0.1 M, pH 8.0). […] The reactions were started by addition of the substrate, at room temperature. The final content of the organic solvent (DMSO) was always 1%. […] To determine the blank value (b), phosphate-buffered solution replaced the enzyme solution. The initial velocity (v0) was calculated from the slope of the linear trend obtained, with each measurement carried out in triplicate. […] The compounds were added to each well at a final concentration of 10 μM. […] The initial velocities in the presence of the test compounds (vi) were calculated. The inhibitory potencies are expressed as the residual activities (RA = (vi – b) / (vo – b)). […] The IC50 values were obtained by plotting the residual enzyme activities against the applied inhibitor concentrations, with the experimental data fitted to Equation (1):
(§3) where X is the logarithm of the inhibitor concentration, and Y is the residual activity. For the fitting procedure, the Gnuplot software and an in-house python script were used.

[2] = biological target: T2, huBChE (Homo sapiens, UniProt P06276); type: biochemical; conditions: for IC50: head prints no unit, nM, read-out: IC50 ±SEM huBChE
T2 construct: made in house
Procedure: as §1, §2, §3

[3] = residual activity at 10 μM, %RA > 75% was considered as no inhibition, Table 1
[4] = residual activity at 10 µM, %RA >75% was considered no inhibition, Supplementary Table 1
[5] = residual activity at 10 μM, Table 1

T2 sequence (P06276 29-602): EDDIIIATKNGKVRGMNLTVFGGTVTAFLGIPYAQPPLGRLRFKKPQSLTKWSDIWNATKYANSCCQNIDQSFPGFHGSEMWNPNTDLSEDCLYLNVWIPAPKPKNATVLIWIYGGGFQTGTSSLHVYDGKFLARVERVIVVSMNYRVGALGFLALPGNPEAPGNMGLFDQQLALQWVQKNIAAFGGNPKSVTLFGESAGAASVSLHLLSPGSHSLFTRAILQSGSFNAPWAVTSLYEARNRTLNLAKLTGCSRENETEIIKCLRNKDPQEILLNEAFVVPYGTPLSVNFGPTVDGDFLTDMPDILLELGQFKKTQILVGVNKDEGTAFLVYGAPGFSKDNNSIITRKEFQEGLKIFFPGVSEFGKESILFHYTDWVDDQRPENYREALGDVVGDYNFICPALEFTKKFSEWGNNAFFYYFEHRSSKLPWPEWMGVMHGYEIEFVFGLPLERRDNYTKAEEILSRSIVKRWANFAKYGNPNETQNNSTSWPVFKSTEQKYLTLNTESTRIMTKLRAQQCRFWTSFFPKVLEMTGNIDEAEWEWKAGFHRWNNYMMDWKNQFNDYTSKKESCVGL

SMILES	%RA at 10 µM ±SEM mAChE [1, 4]	IC50 ([2]; Supplementary Table 1)	further results
COCCN(CC1CCCN(C2Cc3ccccc3C2)C1)S(=O)(=O)c1ccc2ccccc2c1 (racemic) [compound 3, (±)-N-((1-(2,3-dihydro-1H-inden-2-yl)piperidin-3-yl)methyl)-N-(2-methoxyethyl)naphthalene-2-sulfonamide]	72% ±1%	–	%RA at 10 µM ±SEM mAChE [1, 3]: 72% ± 1%; %RA at 10μM ± SEM huBChE [2, 5]: 1.47% ± 1.54%
COCCN(CC1CCCN(C2Cc3ccccc3C2)C1)S(=O)(=O)c1cccc(N)c1 (racemic) [compound 4, (±)-3-amino-N-((1-(2,3-dihydro-1H-inden-2-yl)piperidin-3-yl)methyl)-N-(2-methoxyethyl)benzenesulfonamide]	90% ±0.003%	–	%RA at 10 µM ±SEM mAChE [1, 3]: 90% ± 0.003%; %RA at 10μM ± SEM huBChE [2, 5]: 2.34% ± 0.13%
COCCCN(CC1CCCN(Cc2ccccc2)C1)S(=O)(=O)c1ccc2ccccc2c1 (racemic) [compound 5, (±)-N-((1-benzylpiperidin-3-yl)methyl)-N-(3-methoxypropyl)naphthalene-2-sulfonamide]	95% ±5%	–	%RA at 10 µM ±SEM mAChE [1, 3]: 95% ± 5%; %RA at 10μM ± SEM huBChE [2, 5]: 0.71% ± 0.66%
O=S(=O)(NCC1CCCN(Cc2ccccc2)C1)c1ccc2ccccc2c1 (racemic) [compound 7, (±)-N-((1-benzylpiperidin-3-yl)methyl)naphthalene-2-sulfonamide]	78% ±3%	–	–
CN(CC1CCCN(Cc2ccccc2)C1)S(=O)(=O)c1ccc2ccccc2c1 (racemic) [compound 8, (±)-N-((1-benzylpiperidin-3-yl)methyl)-N-methylnaphthalene-2-sulfonamide]	82% ±1%	–	–
COCCN(CC1CCCN(C2Cc3ccccc3C2)C1)S(=O)(=O)c1cccc([N+](=O)[O-])c1 (racemic) [compound 13, (±)-N-((1-(2,3-dihydro-1H-inden-2-yl)piperidin-3-yl)methyl)-N-(2-methoxyethyl)-3-nitrobenzenesulfonamide]	–	3610 ± 528 nM	–
COCCN(CC1CCCN(C2Cc3ccccc3C2)C1)S(=O)(=O)c1ccccc1 (racemic) [compound 16, (±)-N-((1-(2,3-dihydro-1H-inden-2-yl)piperidin-3-yl)methyl)-N-(2-methoxyethyl)benzenesulfonamide]	97% ±4%	343 ± 5 nM	–
COCCN(CC1CCCN(C2Cc3ccccc3C2)C1)S(=O)(=O)c1ccc(C)cc1 (racemic) [compound 17, (±)-N-((1-(2,3-dihydro-1H-inden-2-yl)piperidin-3-yl)methyl)-N-(2-methoxyethyl)-4-methylbenzenesulfonamide]	86% ±3%	279 ± 8 nM	–
COCCN(CC1CCCN(C2Cc3ccccc3C2)C1)S(=O)(=O)c1ccc(F)cc1 (racemic) [compound 18, (±)-N-((1-(2,3-dihydro-1H-inden-2-yl)piperidin-3-yl)methyl)-4-fluoro-N-(2-methoxyethyl)benzenesulfonamide]	88% ±2%	887 ± 80 nM	–
COCCN(CC1CCCN(C2Cc3ccccc3C2)C1)S(=O)(=O)c1ccc(OC)cc1 (racemic) [compound 19, (±)-N-((1-(2,3-dihydro-1H-inden-2-yl)piperidin-3-yl)methyl)-4-methoxy-N-(2-methoxyethyl)benzenesulfonamide]	87% ±7%	482 ± 66 nM	–
COCCN(CC1CCCN(C2Cc3ccccc3C2)C1)S(=O)(=O)c1ccc([N+](=O)[O-])cc1 (racemic) [compound 20, (±)-N-((1-(2,3-dihydro-1H-inden-2-yl)piperidin-3-yl)methyl)-N-(2-methoxyethyl)-4-nitrobenzenesulfonamide]	91% ±1%	3470 ± 52 nM	–
COCCN(CC1CCCN(C2Cc3ccccc3C2)C1)S(=O)(=O)c1ccccc1C(=O)OC (racemic) [compound 21, (±)-methyl 2-(N-((1-(2,3-dihydro-1H-inden-2-yl)piperidin-3-yl)methyl)-N-(2-methoxyethyl)sulfamoyl)benzoate]	94% ±0.001%	359 ± 18 nM	–
COCCN(CC1CCCN(C2Cc3ccccc3C2)C1)S(=O)(=O)c1ccc(N)cc1 (racemic) [compound 22, (±)-4-amino-N-((1-(2,3-dihydro-1H-inden-2-yl)piperidin-3-yl)methyl)-N-(2-methoxyethyl)benzenesulfonamide]	91% ±1%	314 ± 36 nM	–
COCCN(CC1CCCN(C2Cc3ccccc3C2)C1)S(=O)(=O)c1ccc(NC(C)=O)cc1 (racemic) [compound 23, (±)-N-(4-(N-((1-(2,3-dihydro-1H-inden-2-yl)piperidin-3-yl)methyl)-N-(2-methoxyethyl)sulfamoyl)phenyl)acetamide]	85% ±5%	321 ± 35 nM	–
COCCN(CC1CCCN(C2Cc3ccccc3C2)C1)S(=O)(=O)c1cccc(NC(C)=O)c1 (racemic) [compound 24, (±)-N-(3-(N-((1-(2,3-dihydro-1H-inden-2-yl)piperidin-3-yl)methyl)-N-(2-methoxyethyl)sulfamoyl)phenyl)acetamide]	95% ±4%	8210 ± 601 nM	–
CNC(=O)c1ccccc1S(=O)(=O)N(CCOC)CC1CCCN(C2Cc3ccccc3C2)C1 (racemic) [compound 25, (±)-2-(N-((1-(2,3-dihydro-1H-inden-2-yl)piperidin-3-yl)methyl)-N-(2-methoxyethyl)sulfamoyl)-N-methylbenzamide]	101% ±4%	3220 ± 492 nM	–
COCCN(CC1CCCN(Cc2ccc(F)cc2)C1)S(=O)(=O)c1ccc2ccccc2c1 (racemic) [compound 37, (±)-N-((1-(4-fluorobenzyl)piperidin-3-yl)methyl)-N-(2-methoxyethyl)naphthalene-2-sulfonamide]	89% ±3%	23.1 ± 6 nM	–
COCCN(CC1CCCN(Cc2cccc(F)c2)C1)S(=O)(=O)c1ccc2ccccc2c1 (racemic) [compound 38, (±)-N-((1-(3-fluorobenzyl)piperidin-3-yl)methyl)-N-(2-methoxyethyl)naphthalene-2-sulfonamide]	99% ±0.001%	49.1 ± 1.2 nM	–
COCCN(CC1CCCN(Cc2ccc(C#N)cc2)C1)S(=O)(=O)c1ccc2ccccc2c1 (racemic) [compound 39, (±)-N-((1-(4-cyanobenzyl)piperidin-3-yl)methyl)-N-(2-methoxyethyl)naphthalene-2-sulfonamide]	97% ±2%	1460 ± 115 nM	–
O=S(=O)(NCC1CCCN(c2nc3ccccc3s2)C1)c1ccc2ccccc2c1 (racemic) [compound 71, (±)-N-((1-(benzo[d]thiazol-2-yl)piperidin-3-yl)methyl)naphthalene-2-sulfonamide]	–	–	%RA at 10μM ± SEM huBChE ([2]; residual activity at 10 µM, Supplementary Table 1): 30% ±2%
CN(CC1CCCN(Cc2ccc(F)cc2)C1)S(=O)(=O)c1ccc2ccccc2c1 (racemic) [compound 72, (±)-N-((1-(4-fluorobenzyl)piperidin-3-yl)methyl)-N-methylnaphthalene-2-sulfonamide]	96% ±2%	–	–
COCCN(CC1CCCN(C2Cc3ccccc3C2)C1)C(=O)c1ccc2ccccc2c1 (stereo not drawn) [compound 1, reference compound]	–	–	IC50 ([1]; Table 1, read-out: IC50 (nM) ± SEM mAChE): 102000 ± 2500 nM
COCCN(CC1CCN(Cc2ccccc2)CC1)S(=O)(=O)c1ccc2ccccc2c1 [compound 75, N-((1-benzylpiperidin-4-yl)methyl)-N-(2-methoxyethyl)naphthalene-2-sulfonamide]	98% ±1%	–	–
COCCN(CC1CCN(C2Cc3ccccc3C2)CC1)S(=O)(=O)c1ccc2ccccc2c1 [compound 84, N-((1-(2,3-dihydro-1H-inden-2-yl)piperidin-4-yl)methyl)-N-(2-methoxyethyl)naphthalene-2-sulfonamide]	87% ±3%	–	–
COCCCN(CC1CCN(C2Cc3ccccc3C2)CC1)S(=O)(=O)c1ccc2ccccc2c1 [compound 85, N-((1-(2,3-dihydro-1H-inden-2-yl)piperidin-4-yl)methyl)-N-(3-methoxypropyl)naphthalene-2-sulfonamide]	86% ±0.004%	–	–
O=S(=O)(NCC1CCN(Cc2ccccc2)CC1)c1ccc2ccccc2c1 [compound 86, N-((1-benzylpiperidin-4-yl)methyl)naphthalene-2-sulfonamide]	–	–	IC50 [1]: 1780 ± 85 nM
